According to patent US11859209B2, “Method for inducing osteogenic differentiation” (KYOTO UNIVERSITY, priority 2017, dated 2024):

How the values were obtained:
iPS cells = test: Amount of calcium salt deposition (OCPC), one-procedure osteogenic differentiation method; type: cell-based, human
Method: On-feeder iPS cells were cultured under feeder-free conditions on Matrigel coating in mTeSR (product name, Stemcell Technologies) for three days (D-3 to D0). The cells were seeded on gelatin coating and cultured in a mixed culture medium of osteogenic induction medium (OI medium) and mTeSR (mixing ratio=4:1) supplemented with a ROCK inhibitor (ROCKi) and retinoic acid (RA) for the first two days (D0 to D2). The cells were then cultured in osteogenic induction medium supplemented with retinoic acid (RA) until D10. As a control, cells were cultured in the same culture medium without retinoic acid.
iPS cells were cultured under feeder-free conditions on laminin coating in StemFit AK03N (product name, Ajinomoto Healthy Supply), and then cultured in a mixed culture medium of osteogenic induction medium (OI medium) and mTeSR (mixing ratio=4:1) supplemented with a ROCK inhibitor (ROCKi) and retinoic acid (RA) for the first two days (D0 to D2). The cells were then cultured in osteogenic induction medium supplemented with retinoic acid (RA) until D10. As a control, cells were cultured in the same culture medium without retinoic acid.
(§1) For the evaluation of calcified nodule-forming capacity, the cultured cells were fixed in ethyl alcohol, reacted with alizarin red staining solution for 10 minutes and washed. The positive nodules were evaluated qualitatively. Calcium salt deposition was determined quantitatively by measuring the intensity of color produced by o-cresolphthalein complexon (OCPC) solution.
Next, induction of osteogenic differentiation via BMP and WNT was investigated using inhibitors against them. Cells were cultured in culture medium supplemented with a BMP inhibitor (LDN) or a WNT inhibitor (IWR1) for 10 days, and the amount of calcium salt deposition was determined. […] The results confirmed that both of BMP and WNT signals are implicated in the induction of osteogenic differentiation by retinoic acid.
Cells were cultured in culture medium supplemented with BMS 493, which is an antagonist against all the retinoic acid receptors (pan-RAR antagonist) for 10 days, and the amount of calcium salt deposition was determined.
Next, the effects of siRNAs on each RAR were analyzed. […] However, addition of siRNAs against RARα (α#1 and α#2) and siRNAs against RARβ (β#1 and β#2) reduced the bone-forming capacity. […] In the figure, CTL indicates cell culture supplemented with a control siRNA, and (−) indicates cell culture with no siRNA.
Cells were subjected to the one-procedure osteogenic differentiation method in osteogenic induction medium supplemented with a retinoic acid receptor (RAR) agonist instead of retinoic acid (RA). The amount of calcium salt deposition was determined on day 10. As with addition of retinoic acid, the amount of calcium salt deposition was increased by the addition of the RARα agonists Am 580 (200 nM) and Am 80 (1 μM), or the RARβ agonists CD2314 (3 μM) and AC 55649 (3 μM).

[1] = tested on: iPS cells derived from osteogenesis imperfecta patients having abnormalities of the COL1A1 gene; test: Expression of ER stress-related gene BiP in cells induced from OI patient-derived iPS cells; type: cell-based, human; details: 100 nM added from day 2, assessed on day 10; FIG. 21
Excerpt: (§2) iPS cells (OI#1-1 and OI#2-1) were established from two OI patients (OI#1 and OI#2) having an abnormal COL1A1 gene. The respective mutations in the COL1A1 gene in the iPS cells were restored by genome editing technology to generate rescued iPS cells (resOI#1-1 and resOI#2-1). These iPS cells and standard iPS cells (WT1, 414C2; WT2, 409B2) were subjected to induction of osteogenic differentiation by the one-procedure osteogenic differentiation method. On day 10 of induction, the cells were compared in terms of the capacity of calcified nodule formation, the amount of calcium salt deposition, the expression of an ER stress-related gene, and the capacity of type I collagen secretion.
(§3) Accordingly, the inventors investigated whether the one-procedure osteogenic differentiation method can recapitulate the effects of an mTOR inhibitor. Rapamycin (10 nM) or everolimus (100 nM) was added to the culture medium from day 2 of the induction, and differentiation capacity was assessed on day 10.

[2] = tested on: iPS cells derived from osteogenesis imperfecta patients having abnormalities of the COL1A1 gene; test: Type I collagen secretion by immunostaining with anti-type I collagen antibody, OI patient-derived iPS cells; type: cell-based, human; details: 100 nM added from day 2, assessed on day 10; FIG. 22
Excerpt: as §2, §3

[3] = tested on: iPS cells derived from osteogenesis imperfecta patients having abnormalities of the COL1A1 gene; test: Alizarin red staining of cells induced from OI patient-derived iPS cells; type: cell-based, human; details: 100 nM added from day 2, assessed on day 10; FIG. 19
Method: as §1, §2, §3

[4] = tested on: iPS cells derived from osteogenesis imperfecta patients having abnormalities of the COL1A1 gene; test: Calcium salt deposition of cells induced from OI patient-derived iPS cells; type: cell-based, human; details: 100 nM added from day 2, assessed on day 10; FIG. 20
Method: as §1, §2, §3

[5] = tested on: bone defects of 4 mm in diameter created in the cranium of NOD-SCID mice; test: Transplantation of day 7 induced cells into cranial bone defects, micro-CT and histology after six weeks; details: transplanted cells cultured in osteogenic induction medium supplemented with retinoic acid, FIG. 8B
[6] = day 10, agonist instead of retinoic acid, 3 μM, FIG. 14
[7] = day 10, agonist instead of retinoic acid, 1 μM, FIG. 14

Structure (SMILES): CCCCCCCCc1ccc(-c2ccc(C(=O)O)cc2)cc1 [AC 55649]
- amount of calcium salt deposition (iPS cells; [6]): increased

Structure (SMILES): CC1(C)CCC(C)(C)c2cc(NC(=O)c3ccc(C(=O)O)cc3)ccc21 [Am 80]
- amount of calcium salt deposition (iPS cells; [7]): increased

Structure (SMILES): CC1(C)CCC(C)(C)c2cc(C(=O)Nc3ccc(C(=O)O)cc3)ccc21 [Am 580]
- amount of calcium salt deposition (iPS cells; day 10, agonist instead of retinoic acid, 200 nM, FIG. 14): increased

Structure (SMILES): CC1(C)CC=C(C#Cc2ccccc2)c2cc(/C=C/c3ccc(C(=O)O)cc3)ccc21 [BMS 493]
- amount of calcium salt deposition (iPS cells; culture medium supplemented with pan-RAR antagonist for 10 days, induction by RA, FIG. 12): The effects of RA were completely eliminated

Structure (SMILES): O=C(O)c1ccc2cc(-c3ccc(O)c(C45CC6CC(CC(C6)C4)C5)c3)ccc2c1 [CD437]
- amount of calcium salt deposition (iPS cells; [7]): such effects were not observed

Structure (SMILES): CC1(C)CCC(C)(C)c2cc3cc(-c4cc(C(=O)O)cs4)ccc3cc21 [CD2314]
- amount of calcium salt deposition (iPS cells; [6]): increased

Structure (SMILES): O=C(Nc1cccc2cccnc12)c1ccc(N2C(=O)[C@@H]3[C@H](C2=O)[C@@H]2C=C[C@H]3C2)cc1 [IWR1]
- amount of calcium salt deposition (iPS cells; culture medium supplemented with BMP or WNT inhibitor for 10 days, induction by retinoic acid, FIG. 11): increase in calcium salt deposition by retinoic acid was inhibited

Structure (SMILES): CC1(C)CCC(C)(C)c2cc(Cn3cccn3)c(/C=C/c3ccc(C(=O)O)cc3)cc21 [R667]
- amount of calcium salt deposition (iPS cells; day 10, agonist instead of retinoic acid, 100 nM, FIG. 14): such effects were not observed

Structure (SMILES): CO[C@H]1C[C@@H]2CC[C@@H](C)[C@@](O)(O2)C(=O)C(=O)N2CCCC[C@H]2C(=O)O[C@H]([C@H](C)C[C@@H]2CC[C@@H](OCCO)[C@H](OC)C2)CC(=O)[C@H](C)/C=C(\C)[C@@H](O)[C@@H](OC)C(=O)[C@H](C)C[C@H](C)/C=C/C=C/C=C/1C [everolimus]
- ER stress (expression of the ER stress-related gene BiP) [1]: suggested reduction of ER stress
- Type I collagen secretion and distribution [2]: remarkably improved
- capacity of forming alizarin red-positive calcified nodules [3]: improves
- amount of calcium salt deposition [4]: improves

Structure (SMILES): CC1=C(/C=C/C(C)=C/C=C/C(C)=C/C(=O)O)C(C)(C)CCC1 [retinoic acid]
- tumor formation [5]: no tumor formation was observed
